Measurements taken from patent US7960397B2, “6,9-disubstituted purine derivatives and their use as cosmetics and cosmetic compositions” (Institute of Experimental Botany, Academy of Sciences of …, priority 2007, dated 2011).

Columns and labels:
[1] = test system: cytokinin-dependent tobacco callus Nicotiana tabacum L. cv. Wisconsin 38; experiment: Cytokinin activity in tobacco callus bioassay; assay type: cell-based; conditions: for concentration with highest activity: growth of tobacco callus, four weeks of cultivation, tested 10^−8 M to 10^−4 M; for Activity (%) [10^−5 mol · l^−1 BAP = 100%]: increase of fresh callus weight at the concentration with highest activity, 10^−5 M BAP = 100%
Method: Estimation of cytokinin biological activity of novel compounds in callus bioassay. Cytokinin-dependent tobacco callus Nicotiana tabacum L. cv. […] Subcultivation was carried out every three weeks. Fourteen days before the bioassay, the callus tissue was transferred to the media without the compound tested. The biological activity was determined from the increase of the fresh callus weight after four weeks of cultivation. Five replicates were prepared for each concentration of the compound tested and the entire test was repeated twice. […] The relative activity of the compound at this concentration was calculated (Table 8). […] The compounds to be tested were dissolved in dimethylsulfoxide (DMSO) and the solution brought up to 10^−3 M with distilled water. This stock solution was further diluted with the respective media used for the biotest to a concentration ranging from 10^−8 M to 10^−4 M.

[2] = test system: Amaranthus caudatus cotyledon/hypocotyl explants; experiment: Amaranthus bioassay (betacyanin content); design: species or system Amaranthus caudatus var. atropurpurea; conditions: for concentration with highest activity: betacyanin content after 48 h incubation, tested 10^−8 M to 10^−4 M; for Activity (%) [10^−5 mol · l^−1 BAP = 100%]: betacyanin content at the concentration with highest activity, 10^−5 M BAP = 100%
Method: Testing of novel compounds for typical cytokinin activity in Amaranthus bioassay. A standard Amaranthus bioassay was performed with several modifications. The seeds of Amaranthus caudatus var. atropurpurea were surface-sterilized in 10% (w/v) N-chlorobenzenesulfonamide for 10 min and washed 5 times with deionized water. They were placed in 14 cm Petri dishes containing paper tissues saturated with deionized water. After 72 h of cultivation at 25° C. in darkness, the roots of the seedlings were cut off. The explants, consisting of two cotyledons and hypocotyls, were placed in 5 cm Petri dishes onto two layers of filter paper soaked with 1 ml of the incubation medium containing 10 mmol of NA2HPO4—KH2PO4, pH 6.8, 5 mmol of tyrosine and the compound to be tested. There were 20 explants per dish. The procedure was carried out under a green safe light in a darkroom. […] The concentration of betacyanin was determined from the absorbencies at 537 nm and 620 nm as follows: DA=A537 nm−A620 nm. […] Relative activity of the compound at this concentration was calculated. The activity obtained for 10^−5 M 6-benzylaminopurine (BAP) was defined as 100%.
(§1) The compounds to be tested were dissolved in dimethylsulfoxide (DMSO) and the solution brought up to 10^−3 M with distilled water.

excised wheat leaf tips = experiment: Antisenescence test, retention of chlorophyll in excised wheat leaf tips; design: species or system Triticum aestivum cv. Hereward; conditions: for activity (%) [10^−4 mol · l^−1 BAP = 100%]: retention of chlorophyll in excised wheat leaf tips at the concentration with highest activity, 10 replicate determinations; for concentration with highest activity: retention of chlorophyll in excised wheat leaf tips, tested range 10^−8 M to 10^−4 M, 96 h in the dark at 25° C.
Method: Testing of antisenescence properties of novel cytokinin compounds on wheat leaf segments. Seeds of winter wheat, Triticum aestivum cv. Hereward, were washed under running water for 24 hours and then sown on vermiculite soaked with the Knop's solution. They were placed in the grow chamber at 25° C. with a 16 h-8 h light period at 50 mmol.m^−2.s^−1. After 7 days, the first leaf was fully developed and the second leaf had started to grow. A 35 mm long tip section of the first leaf, was removed from each of 5 seedlings and trimmed slightly to a combined weight of 100 mg. The basal ends of the five leaf tips were placed in the wells of a microtiter polystyrene plate containing […] of the solution of the tested compound each. The entire plate was inserted into a plastic box lined with paper tissues soaked with distilled water to prevent leaf sections from drying out. After 96 h incubation in the dark at 25° C., the leaves were removed and chlorophyll was extracted by heating at 80° C. for 10 min in 5 ml of 80% ethanol (v/v). The sample volume was then restored to 5 ml by the addition of 80% ethanol (v/v). The absorbance of the extract was recorded at 665 nm. In addition, chlorophyll extracts from fresh leaves and leaf tips incubated in deionized water were measured. […] Relative activity of the compound at this concentration was calculated (Table 7). The activity obtained for 10^−4 M 6-benzylaminopurine (BAP) was defined as 100%. The values shown are means of five replicates and the whole experiment was repeated twice.
as §1

[3] = test system: human diploid fibroblasts (HCA cells, HCA20, HCA40, HCA60); experiment: Senescent cells (β-galactosidase staining) in culture of human fibroblasts; assay type: cell-based; conditions: for SENESCENT CELLS (%) HCA20: human fibroblasts passage 20 (HCA20); for SENESCENT CELLS (%) HCA40: human fibroblasts passage 40 (HCA40); for SENESCENT CELLS (%) HCA60: human fibroblasts passage 60 (HCA60)
Method: In this example, human diploid fibroblasts (HCA cells of various passage levels: passage 20—designated HCA20; passage 40—designated HCA40; passage 60—designated HCA60) were stained for β-galactosidase activity. The medium used for the cell cultivation was removed, the cells were washed twice in […], and fixed in 2-3 ml of fixing solution comprised of a 2% formaldehyde and 0.2% glutaraldehyde in PBS. The cells were incubated at room temperature for 5 minutes, and then washed twice with PBS. The cells were subsequently incubated at 37° C.

SMILES	concentration with highest activity [1]	Activity (%) [10^−5 mol · l^−1 BAP = 100%] [1]	concentration with highest activity [2]	Activity (%) [10^−5 mol · l^−1 BAP = 100%] [2]	activity (%) [10^−4 mol · l^−1 BAP = 100%] (excised wheat leaf tips)	concentration with highest activity (excised wheat leaf tips)	SENESCENT CELLS (%) HCA20 [3]	SENESCENT CELLS (%) HCA40 [3]	SENESCENT CELLS (%) HCA60 [3]
Cc1cccc(CNc2ncnc3c2ncn3C2CCCCO2)c1O (stereo not shown)	10^−5 mol · l^−1	9.2%	10^−4 mol · l^−1	68.8%	16.4%	10^−4 mol · l^−1	4%	6%	30%
COc1ccc(CNc2ncnc3c2ncn3C2CCCCO2)c(O)c1 (stereo not shown)	10^−6 mol · l^−1	43%	10^−4 mol · l^−1	37%	35%	10^−4 mol · l^−1	3%	4%	27%
CC(CO)CCNc1ncnc2c1ncn2C1CCCCO1 (stereo not shown) [6-(4-hydroxy-3-methylbutylamino)-9-(tetrahydropyran-2-yl)purine]	10^−5 mol · l^−1	112%	10^−4 mol · l^−1	83%	95%	10^−4 mol · l^−1	5%	2%	25%
COc1cc(O)cc(OC)c1Nc1ncnc2c1ncn2C1CCCCO1 (stereo not shown)	10^−5 mol · l^−1	15%	10^−4 mol · l^−1	8%	14%	10^−4 mol · l^−1	4%	6%	24%
Oc1ccc(Nc2ncnc3c2ncn3C2CCCCO2)cc1 (stereo not shown) [4-hydroxyanilino / tetrahydropyran-2-yl, 6-(4-hydroxyanilino)-9-(tetrahydropyran-2-yl)-purine]	10^−5 mol · l^−1	22%	10^−4 mol · l^−1	32%	–	–	4%	6%	16%
COc1cccc(CNc2ncnc3c2ncn3C2CCCCO2)c1O (stereo not shown)	10^−6 mol · l^−1	11%	10^−4 mol · l^−1	32%	50%	10^−4 mol · l^−1	3%	3%	25%
Oc1ccccc1CNc1ncnc2c1ncn2C1CCCCO1 (stereo not shown) [6-(2-hydroxybenzylamino)-9-(tetrahydropyran-2-yl)purine]	10^−5 mol · l^−1	80%	10^−4 mol · l^−1	41.6%	23.6%	10^−4 mol · l^−1	4%	2%	26%
Cc1ccc(O)c(CNc2ncnc3c2ncn3C2CCCCO2)c1 (stereo not shown)	10^−4 mol · l^−1	121%	10^−4 mol · l^−1	68.4%	82%	10^−4 mol · l^−1	5%	4%	30%
Oc1cccc(CNc2ncnc3c2ncn3C2CCCCO2)c1 (stereo not shown) [6-(3-hydroxybenzylamino)-9-(tetrahydropyran-2-yl)purine]	10^−5 mol · l^−1	139%	10^−4 mol · l^−1	105.1%	133.1%	10^−4 mol · l^−1	5%	3%	25%
COc1cc(CNc2ncnc3c2ncn3C2CCCCO2)cc(OC)c1O (stereo not shown)	10^−5 mol · l^−1	39%	10^−4 mol · l^−1	8%	42%	10^−4 mol · l^−1	4%	5%	17%
CC(CO)CCNc1ncnc2c1ncn2C1CCCO1 (stereo not shown)	10^−5 mol · l^−1	105%	10^−4 mol · l^−1	80%	91%	10^−4 mol · l^−1	5%	2%	25%
Cc1cc(CNc2ncnc3c2ncn3C2CCCO2)ccc1O (stereo not shown) [4-hydroxy-3-methylbenzylamino / tetrahydrofuran-2-yl]	10^−5 mol · l^−1	12%	10^−4 mol · l^−1	2%	1.4%	10^−4 mol · l^−1	–	–	–
